Test results as given in US20240124434A1, “ATF6 INHIBITORS AND USES THEREOF” (Altos Labs, Inc., priority 2018, published 2024).
Converted amounts (≈) assume the structure as drawn. Read-outs that look alike come from different tables or passages of the source.

Assays:
[1] = In vitro microsomal stability, human liver microsomes; format: in vitro ADME; settings: for half-life at 1 μM / half-life at […], 1 µM: human, read-out: T1/2 @ hLM; for Rem. @ hLM (%): remaining fraction after 30 min, 1 μM compound, 0.5 mg/mL human liver microsomes, 1 mM NADPH
Protocol: (§1) Compounds were incubated at a final concentration of 1 μM with 0.5 mg/mL human liver microsomes (hLM) (#HMMCPL; Thermo), mouse liver microsomes (mLM) (#MSMCPL; Thermo) or rat liver microsomes (rLM) (#RTMCPL; Thermo) and 1 mM reduced dihydronicotinamide-adenine dinucleotide phosphate (NADPH) (#N1630; Sigma) in 100 mM phosphate buffer (pH 7.4) at 37° C. The reactions were terminated at 0, 5, 15 and 30 min by the addition of cold acetonitrile containing 50 ng/mL propranolol as an internal standard. […] Verapamil hydrochloride (#V4369 Aldrich) was used as a positive control in all studies.

ATF6 = assay: ERSE ATF6-luciferase reporter assay (thapsigargin-induced ER stress); format: cell-based, human; settings: Homo sapiens, U2OS, thapsigargin-induced ER stress, U2-OS ATF6 luc reporter cells; for inhibition at 1 µM: 8 h, 8 hr
[2] = In vitro microsomal stability, mouse liver microsomes; format: in vitro ADME; settings: for half-life at 1 μM / half-life at […], 1 µM: mouse, read-out: T1/2 @ mLM; for Rem. @ mLM (%): remaining fraction after 30 min, 1 μM compound, 0.5 mg/mL mouse liver microsomes, 1 mM NADPH
Protocol: as §1

[3] = Kinetic solubility (nephelometry); format: physicochemical; settings: aqueous buffer, kinetic from dmso stock; PBS pH 7.4, 1% DMSO, 1 hour at 37° C., light scattering at 625 nm
Protocol: Concentration (μM) was then calculated by segmental regression. Amiodarone (#A8423 Aldrich) was used as positive control.

[4] = In vitro microsomal stability, rat liver microsomes; format: in vitro ADME; settings: for microsomal CLint at […], 1 µM / half-life at […], 1 µM / half-life at 1 μM / microsomal CLint at 1 μM: pH 7.4, rat liver microsomes; for microsomal CLint at […], 1 µM / microsomal CLint at 1 μM: intrinsic clearance, read-out: Clint @ rLM; for half-life at […], 1 µM / half-life at 1 μM: rat, read-out: T1/2 @ rLM; for Rem. @ rLM (%): remaining fraction after 30 min, 1 μM compound, 0.5 mg/mL rat liver microsomes, 1 mM NADPH
Protocol: as §1

CYP2B6 = CYP2B6 (Homo sapiens (Human), UniProt P20813); assay: CYP inhibition in human liver microsomes; settings: read-out: CYP-2B6; human liver microsomes; probe substrate bupropion
Protocol: (§2) CYP inhibition by test compounds in human liver microsomes (HLM) for seven major CYP450 isoforms CYP1A2, CYP2C9, CYP2D6, CYP2B6, CYP2C8, CYP2C19 and CYP3A4 were assessed. […] 50 μM phenacetin, 2 μM midazolam, 5 μM diclofenac, 50 μM mephenytoin, 80 μM bupropion, and 5 μM dextromethorphan were used as probe substrates of CYP1A2, CYP3A4, CYP2C9, CYP2C19, CYP2B6, and CYP2D6, respectively. The incubation times were 20 min for […], CYP2D6, CYP2C9, CYP2B6, and CYP2C8; 40 min for CYP2C19; and 10 min for CYP 3A4. Following incubations, the reactions were terminated with acetonitrile containing internal standard. The samples were centrifuged and the supernatants were analyzed for the formation of metabolites (1-hydroxymidazolam (CYP3A4), 4-hydroxydiclofenac (CYP2C9), 4-hydroxymephenytoin (CYP2C19) and dextrorphan (CYP2D6), hydroxybupropion (CYP2B6), acetaminophen (CYP1A2), desethylamodiaquine (CYP2C8)) by LC/MS/MS.

CYP2C19 = CYP2C19 (Homo sapiens (Human), UniProt P33261); assay: CYP inhibition in human liver microsomes; settings: read-out: CYP-2C19; human liver microsomes; probe substrate mephenytoin
Protocol: as §2

CYP2C9 = CYP2C9 (Homo sapiens (Human), UniProt P11712); assay: CYP inhibition in human liver microsomes; settings: read-out: CYP-2C9; human liver microsomes; probe substrate diclofenac
Protocol: as §2

CYP2C8 = CYP2C8 (Homo sapiens (Human), UniProt P10632); assay: CYP inhibition in human liver microsomes; settings: read-out: CYP-2C8, metabolite desethylamodiaquine
Protocol: as §2

CYP3A4 = CYP3A4 (Homo sapiens (Human), UniProt P08684); assay: CYP inhibition in human liver microsomes; settings: read-out: CYP-3A4; human liver microsomes; probe substrate midazolam
Protocol: as §2

CYP2D6 = CYP2D6 (Homo sapiens (Human), UniProt P10635); assay: CYP inhibition in human liver microsomes; settings: read-out: CYP-2D6; human liver microsomes; probe substrate dextromethorphan
Protocol: as §2

in vivo = settings: Balb/c, mouse, po, 10 mg/kg
Protocol: (§3) Tested compounds were formulated at 1 mg/mL as a dosing solution for oral administration in vehicle A: 10% dimethylacetamide (DMAC), 20% propylene glycol, and 40% PEG-400 or vehicle B: 10% Kolliphor® EL and 10% ethanol (EtOH).
(§4) Animals were acclimated for a minimum period of 4 days upon arrival at the testing facility.
(§5) At the day of study, mice were weighed, identified by marking the tail with numbers using a non-toxic permanent marker, and designated into ten experimental groups (n=3 per group).
(§6) Non-dosed mice were used to collect samples of zero time points. […] Blood samples were centrifuged immediately at 9,000 g at 4° C. for 5 minutes and then plasmas were separated. Plasma samples were placed into individually labeled cryovials and stored in a −80° C. freezer until LC/MS/MS bioanalysis.
(§7) The bioanalysis of plasma samples was conducted with a QTRAP 4500 triple quadrupole mass spectrometer (Applied Biosystems SCIEX) in the positive ion mode and interfaced with an Ekspert Ultra LC100 UPLC System (Eksigent). Calibration standards (0.01 to 10 μM) and QCs (0.02, 0.2 and 2.0 μM) were prepared from naïve mouse plasma in parallel with mouse plasma study samples (60 μL) by precipitation with three volumes of ice cold internal standard solution (acetonitrile containing 20 μM of theophylline). The precipitated samples were centrifuged at 6,100 g for 30 min. Following centrifugation, an aliquot of each supernatant was transferred to an autosampler plate and diluted with two volumes of aqueous mobile phase (0.1% formic acid in water). Samples were injected onto a reverse phase analytical column (YMC Triart C18; 2.0×50 mm; 1.9 μm; YMC CO) and eluted with a gradient of 0.1% formic acid in Acetonitrile. Assayed test compound and internal standards were monitored by a multiple reaction monitoring (MRM) experiment using an Analyst software (v1.6.2, Applied Biosystems SCIEX). Quantitation was conducted using a MultiQuant software (v2.1, Applied Biosystems SCIEX) and the resulting calibration curve was fitted with a linear regression and 1/x weighting. The lower limits of quantitation were 1<LLQ <5 ng/mL.

[5] = mouse, in vivo, po, 10 mg/kg
Protocol: as §3, §4, §5, §6, §7

[6] = pH 7.4, intrinsic clearance, human liver microsomes, read-out: Clint @ hLM
[7] = 1 μM test compound, read-out: Inh. ATF6-Luc @ 1 μM [%]
[8] = dose-response 30 μM to 1 nM, read-out: IC50 ATF6-Luc reporter
[9] = pH 7.4, intrinsic clearance, mouse liver microsomes, read-out: Clint @ mLM
[10] = read-out: Inh. ATF6-Luc @ 1 μM [%], 1 μM test compound
[11] = read-out: IC50 ATF6-Luc reporter [μM], dose-response 30 μM to 1 nM

Chain of CYP2B6 (P20813 whole entry, canonical isoform): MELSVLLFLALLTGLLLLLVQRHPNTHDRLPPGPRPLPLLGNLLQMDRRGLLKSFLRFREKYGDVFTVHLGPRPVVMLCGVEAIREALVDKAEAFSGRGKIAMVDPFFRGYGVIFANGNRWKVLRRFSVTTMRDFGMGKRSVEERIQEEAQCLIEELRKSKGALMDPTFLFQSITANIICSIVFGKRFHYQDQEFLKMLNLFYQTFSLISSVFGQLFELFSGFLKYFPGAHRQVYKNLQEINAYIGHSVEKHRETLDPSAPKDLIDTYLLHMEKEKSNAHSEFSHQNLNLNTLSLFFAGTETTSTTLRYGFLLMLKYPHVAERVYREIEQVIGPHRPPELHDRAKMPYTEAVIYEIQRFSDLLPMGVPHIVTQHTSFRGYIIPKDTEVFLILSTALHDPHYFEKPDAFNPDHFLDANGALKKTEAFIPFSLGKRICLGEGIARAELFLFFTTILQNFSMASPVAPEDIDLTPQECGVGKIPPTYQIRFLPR
Chain of CYP2C8 (P10632 whole entry): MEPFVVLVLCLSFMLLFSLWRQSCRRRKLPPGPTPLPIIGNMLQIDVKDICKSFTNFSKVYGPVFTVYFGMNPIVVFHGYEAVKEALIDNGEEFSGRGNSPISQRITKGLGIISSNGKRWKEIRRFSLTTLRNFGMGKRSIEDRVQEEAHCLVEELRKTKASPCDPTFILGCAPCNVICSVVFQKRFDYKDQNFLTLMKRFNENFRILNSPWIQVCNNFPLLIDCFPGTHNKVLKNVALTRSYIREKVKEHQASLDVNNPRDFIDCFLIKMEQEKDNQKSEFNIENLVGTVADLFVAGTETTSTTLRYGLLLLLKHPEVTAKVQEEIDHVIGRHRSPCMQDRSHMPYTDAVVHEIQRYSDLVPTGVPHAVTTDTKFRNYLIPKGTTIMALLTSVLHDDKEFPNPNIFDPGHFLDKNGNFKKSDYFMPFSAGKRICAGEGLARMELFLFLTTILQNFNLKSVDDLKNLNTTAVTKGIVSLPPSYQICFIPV
Chain of CYP2D6 (P10635 whole entry): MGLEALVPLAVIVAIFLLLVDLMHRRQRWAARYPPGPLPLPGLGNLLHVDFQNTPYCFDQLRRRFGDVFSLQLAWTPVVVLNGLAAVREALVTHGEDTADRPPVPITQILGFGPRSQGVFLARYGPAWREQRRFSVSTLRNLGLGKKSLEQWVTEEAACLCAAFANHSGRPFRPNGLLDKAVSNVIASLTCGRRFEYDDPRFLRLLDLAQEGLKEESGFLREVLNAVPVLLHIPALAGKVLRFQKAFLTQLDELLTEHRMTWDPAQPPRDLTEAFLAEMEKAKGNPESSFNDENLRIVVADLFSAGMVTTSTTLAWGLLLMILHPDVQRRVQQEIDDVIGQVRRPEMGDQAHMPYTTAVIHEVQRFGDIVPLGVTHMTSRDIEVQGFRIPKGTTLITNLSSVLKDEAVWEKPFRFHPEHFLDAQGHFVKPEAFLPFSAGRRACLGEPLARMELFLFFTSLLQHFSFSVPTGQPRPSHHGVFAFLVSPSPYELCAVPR
Chain of CYP3A4 (P08684 whole entry): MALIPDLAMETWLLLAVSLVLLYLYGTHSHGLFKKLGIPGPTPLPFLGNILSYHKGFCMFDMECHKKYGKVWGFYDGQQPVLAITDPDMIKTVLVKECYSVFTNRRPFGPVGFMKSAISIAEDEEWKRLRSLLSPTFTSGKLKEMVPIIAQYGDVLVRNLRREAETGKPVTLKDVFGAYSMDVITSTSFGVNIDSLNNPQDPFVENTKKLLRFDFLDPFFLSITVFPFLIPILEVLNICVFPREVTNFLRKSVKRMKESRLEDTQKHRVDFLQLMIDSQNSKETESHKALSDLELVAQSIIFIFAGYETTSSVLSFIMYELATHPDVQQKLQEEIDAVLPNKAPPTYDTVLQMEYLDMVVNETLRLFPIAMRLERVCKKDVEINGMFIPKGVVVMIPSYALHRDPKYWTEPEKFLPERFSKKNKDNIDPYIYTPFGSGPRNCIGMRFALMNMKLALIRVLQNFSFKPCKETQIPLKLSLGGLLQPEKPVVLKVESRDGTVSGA
Chain of CYP2C9 (P11712 whole entry): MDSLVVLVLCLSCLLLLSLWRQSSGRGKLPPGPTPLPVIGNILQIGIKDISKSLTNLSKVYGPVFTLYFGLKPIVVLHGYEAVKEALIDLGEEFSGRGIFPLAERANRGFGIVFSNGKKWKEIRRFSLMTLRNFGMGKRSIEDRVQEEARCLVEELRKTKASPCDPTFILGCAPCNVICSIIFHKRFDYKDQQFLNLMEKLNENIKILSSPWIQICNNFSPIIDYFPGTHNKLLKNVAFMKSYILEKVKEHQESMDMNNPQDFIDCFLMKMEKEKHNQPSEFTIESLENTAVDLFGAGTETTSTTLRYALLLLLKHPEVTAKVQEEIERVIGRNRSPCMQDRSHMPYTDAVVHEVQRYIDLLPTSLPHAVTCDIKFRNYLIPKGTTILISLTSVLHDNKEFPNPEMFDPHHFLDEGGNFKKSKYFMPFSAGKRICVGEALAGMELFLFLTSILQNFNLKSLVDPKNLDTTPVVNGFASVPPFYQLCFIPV
Chain of CYP2C19 (P33261 whole entry): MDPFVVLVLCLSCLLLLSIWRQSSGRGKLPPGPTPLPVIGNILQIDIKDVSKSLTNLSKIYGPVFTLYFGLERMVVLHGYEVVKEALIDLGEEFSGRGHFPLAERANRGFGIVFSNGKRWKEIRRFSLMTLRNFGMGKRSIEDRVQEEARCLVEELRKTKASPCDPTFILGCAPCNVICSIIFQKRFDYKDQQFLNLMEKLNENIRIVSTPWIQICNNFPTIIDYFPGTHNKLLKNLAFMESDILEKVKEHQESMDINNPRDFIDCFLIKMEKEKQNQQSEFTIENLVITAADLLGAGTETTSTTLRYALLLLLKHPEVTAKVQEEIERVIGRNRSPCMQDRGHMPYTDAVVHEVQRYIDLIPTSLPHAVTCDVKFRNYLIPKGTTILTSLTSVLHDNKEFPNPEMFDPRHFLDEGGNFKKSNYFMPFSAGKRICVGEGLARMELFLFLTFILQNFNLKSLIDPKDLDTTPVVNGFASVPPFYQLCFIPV

| half-life at 1 μM ([1]; human liver microsomes, pH 7.4) [min] | microsomal CLint at […], 1 µM [1, 6] [µL/min/mg] | Rem. @ hLM (%) [1] [%] | IC50 (ATF6; [8]) [µM] | half-life at 1 μM ([2]; mouse liver microsomes, pH 7.4) [min] | microsomal CLint at […], 1 µM [2, 9] [µL/min/mg] | Rem. @ mLM (%) [2] [%] | solubility kinetic at 1 h [3] [µM] | microsomal CLint at […], 1 µM [4] [µL/min/mg] | Rem. @ rLM (%) [4] [%] | half-life at 1 μM [4] [min] | IC50 (ATF6; [11]) [µM] | half-life at […], 1 µM ([2]; mouse liver microsomes, pH 7.4) [min] | Compound | inhibition at 1 µM (ATF6; [7]) [%] | inhibition at 1 µM (ATF6; [10]) [%] | other results |
| --- | --- | --- | --- | --- | --- | --- | --- | --- | --- | --- | --- | --- | --- | --- | --- | --- |
| 32.1 | 43 | 50.1 | < 1 | 7.4 | 187 | 5.62 | 35.2 (≈ 17.1 µg/mL) | 314 | 0.85 |  |  |  | O=C(Nc1cnn(Cc2ccc(C(F)(F)F)cc2C(F)(F)F)c1)c1cc(-c2cccs2)on1 [Compound 14, N-(1-(2,4-bis(trifluoromethyl)benzyl)-1H-pyrazol-4-yl)-5-(thiophen-2-yl)isoxazole-3-carboxamide] | 25 to 50 |  | half-life at […], 1 µM [4]: 4.4 min |
| 53.6 | 25.9 | 59.3 | 1 to 10 | 26.6 | 52.2 | 44.5 | 2.92 (≈ 1.49 µg/mL) | 23.6 | 64.4 | 58.7 |  |  | Cc1c(NC(=O)c2cc(-c3ccccn3)on2)cnn1[C@H](C)c1ccc(C(F)(F)F)cc1C(F)(F)F [Compound 97, (R)—N-(1-(1-(2,4-bis(trifluoromethyl)phenyl)ethyl)-5-methyl-1H-pyrazol-4-yl)-5-(pyridin-2-yl)isoxazole-3-carboxamide] | 25 to 50 |  |  |
| 38.2 | 36.2 | 53.3 |  |  | 72.6 | 34.3 | 4.68 (≈ 2.38 µg/mL) | 33.4 | 51.4 | 41.5 | < 1 | 19.1 | Cc1nn([C@@H](C)c2ccc(C(F)(F)F)cc2C(F)(F)F)cc1NC(=O)c1cc(-c2ccccn2)on1 [Compound 100, (S)—N-(1-(1-(2,4-bis(trifluoromethyl)phenyl)ethyl)-3-methyl-1H-pyrazol-4-yl)-5-(pyridin-2-yl)isoxazole-3-carboxamide] |  | > 50 |  |
| 36 | 38.5 | 52.49 | < 1 | 36.7 | 37.7 | 51.17 | 2.34 (≈ 1.16 µg/mL) | 28.2 | 60.62 | 49.1 |  |  | C[C@H](c1ccc(C(F)(F)F)cc1C(F)(F)F)n1cc(NC(=O)c2cc(-c3ncccn3)on2)cn1 [Compound 101, (R)—N-(1-(1-(2,4-bis(trifluoromethyl)phenyl)ethyl)-1H-pyrazol-4-yl)-5-(pyrimidin-2-yl)isoxazole-3-carboxamide] | > 50 |  |  |
|  | 258 | 2.1 | 1 to 10 |  | 271 | 0.94 | 9.37 (≈ 4.64 µg/mL) |  | 5.24 | 7.24 |  | 5.12 | CN(C(=O)c1cc(-c2ccccn2)on1)c1cnn(Cc2ccc(C(F)(F)F)cc2C(F)(F)F)c1 [Compound 103, N-(1-(2,4-bis(trifluoromethyl)benzyl)-1H-pyrazol-4-yl)-N-methyl-5-(pyridin-2-yl)isoxazole-3-carboxamide] | 25 to 50 |  | half-life at […], 1 µM ([1]; human liver microsomes, pH 7.4): 5.38 min; microsomal CLint at 1 μM [4]: 191 µL/min/mg |
|  | 18.9 | 76.44 |  |  | 12.9 | 83.18 | 2.34 (≈ 1.2 µg/mL) |  | 92.9 | 418 | 1 to 10 | 108 | C[C@H](c1ccc(C(F)(F)F)cc1C(F)(F)F)n1cc(NC(=O)c2cnc(-c3ccccn3)s2)cn1 [Compound 104, (R)—N-(1-(1-(2,4-bis(trifluoromethyl)phenyl)ethyl)-1H-pyrazol-4-yl)-2-(pyridin-2-yl)thiazole-5-carboxamide] |  | 25 to 50 | half-life at […], 1 µM ([1]; human liver microsomes, pH 7.4): 73.2 min; microsomal CLint at 1 μM [4]: 3.32 µL/min/mg |
| 27 | 51.3 | 39.72 | 1 to 10 | 14.2 | 97.7 | 20.03 | 4.68 (≈ 2.08 µg/mL) | 28.7 | 60.99 | 48.3 |  |  | C[C@H](c1ccc(F)cc1C(F)(F)F)n1cc(NC(=O)c2cc(-c3ccccn3)on2)cn1 [Compound 110, (R)—N-(1-(1-(4-fluoro-2-(trifluoromethyl)phenyl)ethyl)-1H-pyrazol-4-yl)-5-(pyridin-2-yl)isoxazole-3-carboxamide] | 25 to 50 |  |  |
| 63.2 |  | 68.0 |  | 62.6 |  | 67.9 |  | 12 | 84.5 |  | < 1 |  | O=C(Nc1cnn(Cc2ccc(C(F)(F)F)cc2C(F)(F)F)c1)c1cc(-c2ncccn2)on1 [Compound 129, N-(1-(2,4-bis(trifluoromethyl)benzyl)-1H-pyrazol-4-yl)-5-(pyrimidin-2-yl)isoxazole-3-carboxamide] |  | > 50 | microsomal CLint at 1 μM [1, 6]: 22 µL/min/mg; IC50 (CYP2B6): > 50 µM; IC50 (CYP2C19): > 50 µM; IC50 (CYP2C9): > 50 µM; IC50 (CYP2C8): > 50 µM; IC50 (CYP3A4): > 50 µM; IC50 (CYP2D6): > 50 µM; microsomal CLint at 1 μM [2, 9]: 22 µL/min/mg; half-life at […], 1 µM [4]: 114 min |

| Compound | half-life at 1 μM ([1]; human liver microsomes, pH 7.4) [min] | microsomal CLint at […], 1 µM [1, 6] [µL/min/mg] | Rem. @ hLM (%) [1] [%] | IC50 (ATF6; [8]) [µM] | half-life at 1 μM ([2]; mouse liver microsomes, pH 7.4) [min] | microsomal CLint at […], 1 µM [2, 9] [µL/min/mg] | Rem. @ mLM (%) [2] [%] | solubility kinetic at 1 h [3] [µM] | microsomal CLint at […], 1 µM [4] [µL/min/mg] | Rem. @ rLM (%) [4] [%] | half-life at 1 μM [4] [min] | IC50 (ATF6; [11]) [µM] | half-life at […], 1 µM ([2]; mouse liver microsomes, pH 7.4) [min] | inhibition at 1 µM (ATF6; [7]) [%] | inhibition at 1 µM (ATF6; [10]) [%] | other results |
| --- | --- | --- | --- | --- | --- | --- | --- | --- | --- | --- | --- | --- | --- | --- | --- | --- |
| C[C@H](c1ccc(C(F)(F)F)cc1C(F)(F)F)n1cc(NC(=O)c2cc(-c3cnccn3)on2)cn1 [Compound 131, (R)—N-(1-(1-(2,4-bis(trifluoromethyl)phenyl)ethyl)-1H-pyrazol-4-yl)-5-(pyrazin-2-yl)isoxazole-3-carboxamide] |  |  |  |  |  |  |  |  |  |  |  | < 1 |  |  | > 50 | IC50 (CYP2B6): 44.5 µM; IC50 (CYP2C19): 16.4 µM; IC50 (CYP2C9): > 50 µM; IC50 (CYP2C8): 43.3 µM; IC50 (CYP3A4): > 50 µM; IC50 (CYP2D6): > 50 µM; AUC(0-inf) (in vivo): 107 µg·h/mL; AUC(0-t) (in vivo): 98700 ng·h/mL; Cmax (in vivo): 7030 ng/mL; Tmax (in vivo): 6 h; half-life (in vivo): 370 min; AUCExtr [%] ([5]; Balb/c): 7.75%; F [%] ([5]; Balb/c): 85.9%; Vz ([5]; Balb/c): 0.831 L/kg; Last time point for AUClast [5]: 24 h |
